Results taken from PMC11876601 (Molecular Systems Biology, 2025).
Read-outs that look alike come from different tables or passages of the source.

What was measured:
Experiment in all cases: cells
BxPC-3 [1] = tested on: BxPC-3; design: ATPlite luminescence viability of PDAC cell lines, 11-dose single-agent curves, 4-parameter fit; conditions: Homo sapiens, BXPC-3, 72 h, read-out: EC50 [nM]
Procedure, shortened: (§1)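 cells (1000 to 5000 per well) seeded 24 h before drug addition in a combination screen at 0.2% final DMSO. Controls were drug-free wells (negative) and 5 µM staurosporine (positive).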

Colo-357 [2] = tested on: Colo-357; design: ATPlite luminescence viability of PDAC cell lines, 11-dose single-agent curves, 4-parameter fit; conditions: Homo sapiens, COLO357, 72 h, read-out: EC50 [nM]
Procedure, shortened: as §1

Dan-G [3] = tested on: Dan-G; design: ATPlite luminescence viability of PDAC cell lines, 11-dose single-agent curves, 4-parameter fit; conditions: 72 h, read-out: EC50 [nM]
Procedure, shortened: as §1

FAMPAC [4] = tested on: FAMPAC; design: ATPlite luminescence viability of PDAC cell lines, 11-dose single-agent curves, 4-parameter fit; conditions: 72 h, read-out: EC50 [nM]
Procedure, shortened: as §1

MiaPaCa-2 [5] = tested on: MiaPaCa-2; design: ATPlite luminescence viability of PDAC cell lines, 11-dose single-agent curves, 4-parameter fit; conditions: Homo sapiens, MIA PaCa-2, 72 h, read-out: EC50 [nM]
Procedure, shortened: as §1

PSN-1 [6] = tested on: PSN-1; design: ATPlite luminescence viability of PDAC cell lines, 11-dose single-agent curves, 4-parameter fit; conditions: Homo sapiens, PSN1, 72 h, read-out: EC50 [nM]
Procedure, shortened: as §1

PaTu-8988-T [7] = tested on: PaTu-8988-T; design: ATPlite luminescence viability of PDAC cell lines, 11-dose single-agent curves, 4-parameter fit; conditions: Homo sapiens, PaTu 8988t, 72 h, read-out: EC50 [nM]
Procedure, shortened: as §1

Suit2-07 [8] = tested on: Suit2-07; design: ATPlite luminescence viability of PDAC cell lines, 11-dose single-agent curves, 4-parameter fit; conditions: 72 h, read-out: EC50 [nM]
Procedure, shortened: as §1

AsPC-1 [9] = tested on: AsPC-1; design: Viability of PDAC cell lines, ATPlite luminescence, 11-dose single-agent curve fit; conditions: Homo sapiens, ASPC1, 72 h, read-out: EC50 [nM]
Procedure, shortened: (§2)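 cells (1000 to 5000 per well) seeded 24 h before drug addition in a screen at 0.2% final DMSO. Controls were drug-free wells (negative) and 5 µM staurosporine (positive).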

Capan-1 = tested on: Capan-1; design: Viability of PDAC cell lines, ATPlite luminescence, 11-dose single-agent curve fit; conditions: Homo sapiens, CAPAN-1, 72 h, read-out: EC50 [nM]
Procedure, shortened: as §2

HPDE [10] = tested on: HPDE; design: Viability of PDAC cell lines, ATPlite luminescence, 11-dose single-agent curve fit; conditions: HPDE, 72 h, read-out: EC50 [nM]
Procedure, shortened: as §2

HuP-T4 = tested on: HuP-T4; design: Viability of PDAC cell lines, ATPlite luminescence, 11-dose single-agent curve fit; conditions: Homo sapiens, HuP-T4, 72 h, read-out: EC50 [nM]
Procedure, shortened: as §2

PANC-1 = tested on: PANC-1; design: Viability of PDAC cell lines, ATPlite luminescence, 11-dose single-agent curve fit; conditions: Homo sapiens, PANC-1, 72 h, read-out: EC50 [nM]
Procedure, shortened: as §2

AsPC-1 [11] = tested on: AsPC-1; design: ATPlite luminescence viability of PDAC cell lines, 11-dose single-agent curves, 4-parameter fit; conditions: Homo sapiens, ASPC1, 72 h, read-out: EC50 [nM]
Procedure, shortened: as §1

Colo-357 [12] = tested on: Colo-357; design: Viability of PDAC cell lines, ATPlite luminescence, 11-dose single-agent curve fit; conditions: Homo sapiens, COLO357, 72 h, read-out: EC50 [nM]
Procedure, shortened: as §2

Dan-G [13] = tested on: Dan-G; design: Viability of PDAC cell lines, ATPlite luminescence, 11-dose single-agent curve fit; conditions: 72 h, read-out: EC50 [nM]
Procedure, shortened: as §2

PaTu-8988-T [14] = tested on: PaTu-8988-T; design: Viability of PDAC cell lines, ATPlite luminescence, 11-dose single-agent curve fit; conditions: Homo sapiens, PaTu 8988t, 72 h, read-out: EC50 [nM]
Procedure, shortened: as §2

Suit2-07 [15] = tested on: Suit2-07; design: Viability of PDAC cell lines, ATPlite luminescence, 11-dose single-agent curve fit; conditions: 72 h, read-out: EC50 [nM]
Procedure, shortened: as §2

BxPC-3 [16] = tested on: BxPC-3; design: Viability of PDAC cell lines, ATPlite luminescence, 11-dose single-agent curve fit; conditions: Homo sapiens, BXPC-3, 72 h, read-out: EC50 [nM]
Procedure, shortened: as §2

FAMPAC [17] = tested on: FAMPAC; design: Viability of PDAC cell lines, ATPlite luminescence, 11-dose single-agent curve fit; conditions: 72 h, read-out: EC50 [nM]
Procedure, shortened: as §2

MiaPaCa-2 [18] = tested on: MiaPaCa-2; design: Viability of PDAC cell lines, ATPlite luminescence, 11-dose single-agent curve fit; conditions: Homo sapiens, MIA PaCa-2, 72 h, read-out: EC50 [nM]
Procedure, shortened: as §2

PSN-1 [19] = tested on: PSN-1; design: Viability of PDAC cell lines, ATPlite luminescence, 11-dose single-agent curve fit; conditions: Homo sapiens, PSN1, 72 h, read-out: EC50 [nM]
Procedure, shortened: as §2

HPDE [20] = tested on: HPDE; design: ATPlite luminescence viability of PDAC cell lines, 11-dose single-agent curves, 4-parameter fit; conditions: HPDE, 72 h, read-out: EC50 [nM]
Procedure, shortened: as §1

EC50 (BxPC-3 [1]) | EC50 (Colo-357 [2]) | EC50 (MiaPaCa-2 [5]) | EC50 (AsPC-1 [9]) | EC50 (PANC-1) | EC50 (AsPC-1 [11]) | EC50 (Colo-357 [12]) | EC50 (BxPC-3 [16]) | Compound | EC50 (Dan-G [3]) | EC50 (FAMPAC [4]) | EC50 (PSN-1 [6]) | EC50 (PaTu-8988-T [7]) | EC50 (Suit2-07 [8]) | EC50 (Capan-1) | EC50 (HPDE [10]) | EC50 (HuP-T4) | EC50 (PaTu-8988-T [14]) | EC50 (Suit2-07 [15]) | EC50 (FAMPAC [17]) | EC50 (PSN-1 [19]) | further results
2910 nM | 6960 nM | 773 nM | 1820 nM | 1860 nM |  |  |  | CO[C@]1(C(=O)N[C@@H](C)c2ccc(-n3cc(F)cn3)nc2)CC[C@H](c2nc(C)cc(Nc3cc(C)[nH]n3)n2)CC1 [Pralsetinib] | 6680 nM | 5210 nM | 5870 nM | 6490 nM | > 10000 nM | > 10000 nM | 4600 nM | 4550 nM |  |  |  |  | 
381 nM |  | 10.7 nM |  | 350 nM | 83.9 nM | 58.4 nM |  | Cn1cnc2c(F)c(Nc3ccc(Br)cc3F)c(C(=O)NOCCO)cc21 [Binimetinib] |  | 2430 nM | 71.8 nM |  |  | 401 nM | 222 nM | 176 nM | 155 nM | 112 nM |  |  | EC50 (Dan-G [13]): 504 nM
 | 5610 nM | > 10000 nM | 4830 nM | > 10000 nM |  |  | 2930 nM | CC(=O)c1c(C)c2cnc(Nc3ccc(N4CCNCC4)cn3)nc2n(C2CCCC2)c1=O [Palbociclib] | 8540 nM |  | > 10000 nM | > 10000 nM | > 10000 nM | 5070 nM | > 10000 nM | 0.1 nM |  |  | 1390 nM |  | 
296 nM | 1020 nM | 1290 nM |  | 6620 nM | 3210 nM |  |  | COC(=O)N[C@@H](C)CNc1nccc(-c2cn(C(C)C)nc2-c2cc(Cl)cc(NS(C)(=O)=O)c2F)n1 [Encorafenib] | 620 nM | 943 nM | 800 nM |  | 1790 nM | 453 nM | 1140 nM |  | 1220 nM |  |  |  | 
4940 nM |  | 1030 nM |  | 77.7 nM | > 10000 nM | 9780 nM |  | COC(=O)c1ccc2c(c1)NC(=O)/C2=C(\Nc1ccc(N(C)C(=O)CN2CCN(C)CC2)cc1)c1ccccc1 [Nintedanib] | 6960 nM | > 10000 nM | 8030 nM | 6690 nM | > 10000 nM | 10200 nM | 1550 nM | 146 nM |  |  |  |  | 
 | 151 nM |  | 154 nM | > 10000 nM |  |  | 246 nM | CC(C)NC[C@@H](C(=O)N1CCN(c2ncnc3c2[C@H](C)C[C@H]3O)CC1)c1ccc(Cl)cc1 [Ipatasertib] | 1150 nM |  |  |  | 3240 nM | 4690 nM | 5290 nM | 310 nM | 543 nM |  | 642 nM | 7080 nM | EC50 (MiaPaCa-2 [18]): 3940 nM
 | 240 nM |  | > 10000 nM | 5670 nM |  |  | 1010 nM | Cc1cc(Nc2ncnc3ccc(NC4=NC(C)(C)CO4)cc23)ccc1Oc1ccn2ncnc2c1 [Tucatinib] | 222 nM |  |  |  |  | 121 nM | 3660 nM | 292 nM | > 10000 nM | > 10000 nM | 7060 nM | 24.4 nM | EC50 (MiaPaCa-2 [18]): 7710 nM
1640 nM | 355 nM | 1400 nM |  | > 10000 nM | 3740 nM |  |  | Cc1nc(NC(=O)N2CCC[C@H]2C(N)=O)sc1-c1ccnc(C(C)(C)C(F)(F)F)c1 [Alpelisib] | 661 nM |  |  | 3930 nM |  | 5110 nM | 7680 nM | 21.8 nM |  | 2060 nM | 3750 nM | 269 nM | 
4270 nM |  | 2050 nM |  | 3980 nM | 3450 nM | 3150 nM |  | COCc1c(-c2cc3cc(C)cc(OC)c3s2)c2c(N)ncnn2c1CN1CCNC(=O)C1 [Rogaratinib] | 3460 nM | 3300 nM | 3270 nM | 3870 nM | > 10000 nM | 5610 nM | 7330 nM | 24.2 nM |  |  |  |  | 
 | 3360 nM |  | 2530 nM | 3010 nM |  |  | 3910 nM | CC[C@H](Nc1ncnc2[nH]cnc12)c1nc2cccc(F)c2c(=O)n1-c1ccccc1 [Idelalisib] | 2130 nM |  |  |  |  | 9330 nM | 9240 nM | 754 nM | 10000 nM | 5950 nM | > 10000 nM | 545 nM | EC50 (MiaPaCa-2 [18]): 8760 nM
 | 3560 nM |  | 3000 nM | 3760 nM |  |  | > 10000 nM | Cc1cc2c(F)c(Oc3ncnn4cc(OC[C@@H](C)OC(=O)[C@H](C)N)c(C)c34)ccc2[nH]1 [Brivanib alaninate] |  |  |  |  |  | > 10000 nM | 3160 nM | 2460 nM | > 10000 nM | > 10000 nM | > 10000 nM | 3990 nM | EC50 (Dan-G [13]): 3820 nM; EC50 (MiaPaCa-2 [18]): 3140 nM
4420 nM |  | > 10000 nM |  | > 10000 nM | > 10000 nM | 3010 nM |  | CC(C)N1CCN(Cc2cnc(-c3cc(-c4cccc5[nH]ccc45)cc4[nH]ncc34)o2)CC1 [Nemiralisib] |  |  |  |  | > 10000 nM | 10.5 nM | 7360 nM | 3260 nM | 811 nM |  | > 10000 nM | 5830 nM | EC50 (Dan-G [13]): 5040 nM
 |  |  | 46.1 nM | 1170 nM |  | 373 nM | 128 nM | C=CC(=O)N1CCC[C@@H](n2nc(-c3ccc(Oc4ccccc4)cc3)c3c(N)ncnc32)C1 [Ibrutinib] | 56.6 nM |  |  |  |  | 317 nM |  | 54.2 nM | 166 nM | 396 nM | 28.3 nM | 1100 nM | EC50 (HPDE [20]): 521 nM; EC50 (MiaPaCa-2 [18]): 1840 nM
6320 nM |  | > 10000 nM |  | 5350 nM | > 10000 nM | 1080 nM |  | COc1cc(CCc2cc(NC(=O)c3ccc(N4C[C@@H](C)N[C@@H](C)C4)cc3)n[nH]2)cc(OC)c1 [AZD4547] |  |  | 8650 nM |  | 9040 nM | 0.79 nM | 5300 nM | 9460 nM | 7380 nM |  | > 10000 nM |  | EC50 (Dan-G [13]): 0.1 nM
1360 nM |  | 24.1 nM |  | 87.4 nM | 59.5 nM | 22.3 nM |  | Cn1cnc2c(F)c(Nc3ccc(Br)cc3Cl)c(C(=O)NOCCO)cc21 [Selumetinib] |  | 8370 nM | 229 nM |  |  | 4670 nM | 268 nM | 276 nM | 94.7 nM | 451 nM |  |  | EC50 (Dan-G [13]): 1490 nM
